# Patent US20230146239A1 (THE SCRIPPS RESEARCH INSTITUTE, priority 2020, published 2023)
# Read-outs that look alike come from different tables or passages of the source.
# How the values were obtained:
# [1] = test system: VanA E. faecalis BM 4166 or ATCC BAA-2573; experiment: microbe, parasite or virus in culture; type: cell-based; conditions: Enterococcus faecalis, ATCCBAA2573, read-out: MIC, VanA E. faecalis
# [2] = test system: VanA E. faecium (ATCC BAA-2317); experiment: In vitro antimicrobial microdilution assay (MIC); type: cell-based, Enterococcus faecium
# [3] = test system: VanA VRE E. faecalis BM 4166 and E. faecium ATCC BAA-2317; conditions: previously reported; C1-vancomycin even at 100 μM; cited from earlier work
# VanA VRE, 4 strains = experiment: Antimicrobial activity against VanA VRE panel (4 strains), summarised in text; type: cell-based, Enterococcus faecalis, Enterococcus faecium
# [4] = mice, cited from earlier work; for terminal half-life (t1/2): earlier studies; for AUC / CL / Cmax / Vd / t1/2 / tmax: iv, earlier study
# [5] = Mouse pharmacokinetics, iv; conditions: 10 mg/kg
# Protocol: Plasma was obtained by centrifugation using a microcentrifuge fit with a hematocrit rotor, and obtained plasma was immediately frozen. The use of micro-sampling blood collection reduces the total blood taken from the mouse and allows a single mouse to be used for the entire time course, reducing inter-individual variability and maintaining the health of the mouse.
# Drug levels were determined by mass spectrometry using an ABSciex 5500 mass spectrometer using multiple reaction monitoring. […] All PK work was conducted in the Scripps Florida vivarium which is fully AAALAC accredited. Procedures were approved by the Scripps Florida IACUC, protocol number 15-022.
# [6] = mice, earlier studies; cited from earlier work
# [7] = test system: VanA E. faecalis (BM 4166); experiment: In vitro antimicrobial microdilution assay (MIC); type: cell-based, Enterococcus faecalis
# [8] = test system: VanA VRSA strain VRS2 (S. aureus); conditions: mouse, in vivo; cited from earlier work
# [9] = test system: VanA VRE E. faecium (ATCC BAA2317); experiment: organism not typed; type: cell-based, Enterococcus faecium
# Protocol: (§1) When NaH2PO4 or POPE was used instead of LTA, 10% brain-heart infusion broth containing 0.002% Tween®-80 with 100 μg/mL NaH2PO4 or 100 μg/mL POPE was used as the culture medium used for serial dilution. When additional G3 (H2N^+(CH2)3NHC(NH2)═NH2^+.2TFA) or Mg^2+ was used, 10% brain-heart infusion broth containing 0.002% Tween®-80 with 100 μg/mL G3 or 100 μg/mL MgCl2 and 100 μg/mL lipoteichoic acid was used as the culture medium for serial dilution of study group, 10% brain-heart infusion broth containing 0.002% Tween®-80 with 100 μg/mL G3 was used as the culture medium for serial dilution of control group.
# [10] = test system: VanB E. faecalis ATCC 51299; experiment: microbe, parasite or virus in culture; type: cell-based, Enterococcus faecalis; conditions: for MIC: Enterococcus faecalis, ATCC51299, read-out: MIC, VanB E. faecalis ATCC 51299
# [11] = test system: MRSA S. aureus ATCC 43300; experiment: microbe, parasite or virus in culture; type: cell-based, Staphylococcus aureus; conditions: for MIC: Staphylococcus aureus, read-out: MIC, MRSA S. aureus ATCC 43300
# [12] = test system: VanA E. faecalis (ATCC BAA-2573); experiment: In vitro antimicrobial microdilution assay (MIC); type: cell-based, Enterococcus faecalis
# [13] = test system: VanA VRE E. faecalis BM 4166 and E. faecium ATCC BAA-2317; type: cell-based, Enterococcus faecalis, Enterococcus faecium; conditions: 10 μM added at 5 minutes
# Protocol: The above bacterial solution was subjected to a subculture to obtain fresh mid-log phase bacterial cells (incubation time=6 hours). The bacterial suspension was diluted to a total volume of 7 mL with OD600=0.6.
# After the cultured bacteria were harvested (3000 rpm, 4° C., 20 minutes), the white bacterial precipitate was washed and resuspended in 5 mM glucose and 5 mM HEPES buffer (1:1, 5.00 mL, pH=7.2).
# [14] = test system: Sensitive S. aureus ATCC 25923; experiment: In vitro antimicrobial microdilution assay (MIC); type: cell-based, Staphylococcus aureus
# VanA E. faecium (TX2465) = experiment: In vitro antimicrobial microdilution assay (MIC); type: cell-based, Enterococcus faecium
# [15] = test system: VanA VRE E. faecalis (BM 4166); experiment: Impact of added LTA, phosphate, POPE on antimicrobial activity (MIC); type: cell-based, Enterococcus faecalis; conditions: for decrease of antimicrobial activity by added LTA: 100 μg/mL LTA, both VanA VRE strains
# Protocol: as §1
# [16] = test system: two VanA VRE strains (E. faecalis BM4166, E. faecium ATCC BAA-2317); experiment: Resistance development assay, durability (serial passaging at 0.5×MIC); type: cell-based, Enterococcus faecalis, Enterococcus faecium; conditions: 50 passages
# Protocol: The lowest concentration of antibiotic (in μg/mL) capable of eliminating cell growth in the wells is the reported MIC value.
# A new MIC assay was performed with the same protocol above. This process was repeated for 50 passages, and the fold increase in MIC was determined after each passage.
# [17] = Enterococcus faecium, ATCCBAA2317, read-out: MIC, VanA E. faecium ATCC BAA-2317
# [18] = 10 mg/kg, listed as C1-CBP-vancomycin (4)
compound,measurement,setting,value
"CN[C@H](CC(C)C)C(=O)N[C@H]1C(=O)N[C@@H](CC(N)=O)C(=O)N[C@H]2C(=O)NC3C(=O)N[C@H](C(=O)N[C@H](C(=O)NCCC[N+](C)(C)C)c4cc(O)cc(O)c4-c4cc3ccc4O)[C@H](O)c3ccc(c(Cl)c3)Oc3cc2cc(c3OC2OC(CO)C(O)[C@H](O)[C@@H]2O[C@H]2CC(C)(NCc3ccc(-c4ccc(Cl)cc4)cc3)[C@H](O)[C@H](C)O2)Oc2ccc(cc2Cl)[C@H]1O (single isomer, unassigned) [Compound 4, C1-CBP-vancomycin]",MIC,[1],0.25 µg/mL
same,MIC,[2]; [17],0.5 µg/mL
same,bacterial cell membrane permeabilization,[3],pronounced membrane permeabilization
same,more potent than vancomycin,"VanA VRE, 4 strains",about 1000 fold
same,terminal half-life (t1/2),[4],300 min
same,AUC,[4]; [18],81100 ng·h/mL
same,CL,[4]; [18],2 mL/min/kg
same,Cmax,[4]; [18],14.1 µg/mL
same,Vd,[4]; [18],1.25 L/kg
same,t1/2,[4]; [18],420 min
same,tmax,[4]; [18],30 min
same,AUC,[4]; 50 mg/kg,430000 ng·h/mL
same,CL,[4]; 50 mg/kg,2 mL/min/kg
same,Cmax,[4]; 50 mg/kg,58.9 µg/mL
same,Vd,[4]; 50 mg/kg,1.04 L/kg
same,t1/2,[4]; 50 mg/kg,372 min
same,AUC,"[5]; female, CD-1, mouse, in vivo",48400 ng·h/mL
same,Cmax,"[5]; female, CD-1, mouse, in vivo",14.5 µg/mL
same,Vd,"[5]; female, CD-1, mouse, in vivo",0.64 L/kg
same,clearance,"[5]; female, CD-1, mouse, in vivo",2 mL/min/kg
same,half-life,"[5]; female, CD-1, mouse, in vivo",306 min
same,tmax,"[5]; female, CD-1, mouse, in vivo",4.8 min
same,MRTlNF—obs,[5]; mice,336 min
same,Vd,"[5]; mice, this study",(0.64) L/kg
same,MTD,[6],50 mg/kg
"CN[C@H](CC(C)C)C(=O)N[C@H]1C(=O)N[C@@H](CC(N)=O)C(=O)N[C@H]2C(=O)N[C@H]3C(=O)N[C@H](C(=O)N[C@H](C(=O)O)c4cc(O)cc(O)c4-c4cc3ccc4O)[C@H](O)c3ccc(c(Cl)c3)Oc3cc2cc(c3O[C@@H]2O[C@H](CO)[C@@H](O)[C@H](O)[C@H]2O[C@H]2C[C@](C)(N)[C@H](O)[C@H](C)O2)Oc2ccc(cc2Cl)[C@H]1O [Compound 1, vancomycin]",MIC,[1],250 µg/mL
same,MIC,[2]; [17],250 µg/mL
same,MIC,"[7]; Enterococcus faecalis, read-out: MIC, VanA E. faecalis BM 4166",250 µg/mL
same,activity in the VRSA thigh infection model,[8],inactive
same,terminal half-life (t1/2),[4],30 to 78 min
same,AUC,[4]; 10 mg/kg,21800 ng·h/mL
same,CL,[4]; 10 mg/kg,7.67 mL/min/kg
same,Cmax,[4]; 10 mg/kg,62.8 µg/mL
same,Vd,[4]; 10 mg/kg,0.34 L/kg
same,t1/2,[4]; 10 mg/kg,31.2 min
same,tmax,[4]; 10 mg/kg,4.98 min
same,AUC,[4]; 300 mg/kg,935000 ng·h/mL
same,CL,[4]; 300 mg/kg,5.33 mL/min/kg
same,Cmax,[4]; 300 mg/kg,1665 µg/mL
same,Vd,[4]; 300 mg/kg,0.62 L/kg
same,t1/2,[4]; 300 mg/kg,81 min
same,tmax,[4]; 300 mg/kg,4.98 min
same,MIC,"[9]; read-out: MIC, +LTA",250 µg/mL
same,MIC,"[9]; read-out: MIC, −LTA",250 µg/mL
same,MIC,[10],8 µg/mL
same,MIC,[11],0.5 µg/mL
same,MIC,"[12]; Enterococcus faecalis, ATCCBAA2573, read-out: MIC, VanA E. faecalis ATCC BAA-2573",125 µg/mL
same,bacterial cell membrane permeabilization,[13],no permeabilization
same,MTD,[6],300 mg/kg
same,MIC,"[14]; Staphylococcus aureus, ATCC25923, read-out: MIC, Sensitive S. aureus ATCC 25923",0.5 µg/mL
same,MIC,VanA E. faecium (TX2465),250 µg/mL
same,MIC,"VanA E. faecium (TX2465); Enterococcus faecium, read-out: MIC, VanA E. faecium TX2465",250 µg/mL
same,decrease of antimicrobial activity by added LTA,[15],no difference
same,MIC,"[15]; read-out: MIC, +LTA",250 µg/mL
same,MIC,"[15]; read-out: MIC, −LTA",250 µg/mL
"CN[C@H](CC(C)C)C(=O)N[C@H]1C(=O)N[C@@H](CC(N)=O)C(=O)N[C@H]2C(=O)NC3C(=O)N[C@H](C(=O)N[C@H](C(=O)NCc4ccc(NC(=N)N)cc4)c4cc(O)cc(O)c4-c4cc3ccc4O)[C@H](O)c3ccc(c(Cl)c3)Oc3cc2cc(c3OC2OC(CO)C(O)[C@H](O)[C@@H]2O[C@H]2CC(C)(N)[C@H](O)[C@H](C)O2)Oc2ccc(cc2Cl)[C@H]1O (stereo partly drawn) [Compound 9, GBn-vancomycin]","MIC, VanA E. faecium ATCC BAA-2317",[2],4 µg/mL
same,"MIC, VanA E. faecalis BM 4166",[7],16 µg/mL
same,"MIC, +LTA","[9]; E. faecium ATCC BAA-2317, LTA 100 μg/mL",4 µg/mL
same,"MIC, −LTA","[9]; E. faecium ATCC BAA-2317, no LTA (0 μg/mL)",4 µg/mL
same,"MIC, VanB E. faecalis ATCC 51299",[10],8 µg/mL
same,"MIC, MRSA S. aureus ATCC 43300",[11],0.12 µg/mL
same,"MIC, VanA E. faecalis ATCC BAA-2573",[12],4 µg/mL
same,"MIC, Sensitive S. aureus ATCC 25923",[14],0.25 µg/mL
same,"MIC, VanA E. faecium TX2465",VanA E. faecium (TX2465),8 µg/mL
same,"MIC, +LTA","[15]; E. faecalis BM 4166, LTA 100 μg/mL",16 µg/mL
same,"MIC, −LTA","[15]; E. faecalis BM 4166, no LTA",16 µg/mL
"CN[C@H](CC(C)C)C(=O)N[C@H]1C(=O)N[C@@H](CC(N)=O)C(=O)N[C@H]2C(=O)N[C@H]3C(=O)N[C@H](C(=O)N[C@H](C(=O)NCc4ccc(NC(=N)N)cc4)c4cc(O)cc(O)c4-c4cc3ccc4O)[C@H](O)c3ccc(c(Cl)c3)Oc3cc2cc(c3OC2OC(CO)C(O)[C@H](O)C2O[C@H]2CC(C)(NCc3ccc(-c4ccc(Cl)cc4)cc3)[C@H](O)[C@H](C)O2)Oc2ccc(cc2Cl)[C@H]1O (stereo partly drawn) [Compound 19, GBn-CBP-vancomycin]",MIC,"[9]; read-out: MIC, +LTA",2.5 µg/mL
same,MIC,"[9]; read-out: MIC, −LTA",0.3 µg/mL
same,MIC,[10],0.04 µg/mL
same,MIC,[11],0.02 µg/mL
same,bacterial cell membrane permeabilization,[13],strong membrane permeabilization
same,MIC,"[14]; Staphylococcus aureus, ATCC25923; read-out: MIC, Sensitive S. aureus ATCC 25923",0.04 µg/mL
same,decrease of antimicrobial activity by added LTA,[15],8 fold
same,MIC,"[15]; read-out: MIC, +LTA",5 µg/mL
same,MIC,"[15]; read-out: MIC, −LTA",0.6 µg/mL
"CN[C@H](CC(C)C)C(=O)N[C@H]1C(=O)N[C@@H](CC(N)=O)C(=O)N[C@H]2C(=O)N[C@H]3C(=O)N[C@H](C(=O)N[C@H](C(=O)O)c4cc(O)c(CN[C@@H](CCCNC(=N)N)C(=O)OC)c(O)c4-c4cc3ccc4O)[C@H](O)c3ccc(c(Cl)c3)Oc3cc2cc(c3OC2OC(CO)C(O)[C@H](O)C2O[C@H]2CC(C)(N)[C@H](O)[C@H](C)O2)Oc2ccc(cc2Cl)[C@H]1O (stereo partly drawn) [Compound 27, Arg(OMe)^Ar-vancomycin]",MIC,"[2]; Enterococcus faecium, ATCCBAA2317; read-out: MIC, VanA E. faecium ATCC BAA-2317",8 µg/mL
same,MIC,"[7]; Enterococcus faecalis; read-out: MIC, VanA E. faecalis BM 4166",31 µg/mL
same,less potent compared with Arg(OMe)-vancomycin (Compound 10),"VanA VRE, 4 strains; resistant organisms",≤ 8 fold
same,MIC,"[12]; Enterococcus faecalis, ATCCBAA2573; read-out: MIC, VanA E. faecalis ATCC BAA-2573",16 µg/mL
same,MIC,"VanA E. faecium (TX2465); Enterococcus faecium; read-out: MIC, VanA E. faecium TX2465",63 µg/mL
CN(C)c1cc(NC(=O)CNC(C)(C)C)c(O)c2c1C[C@H]1C[C@H]3[C@H](N(C)C)C(O)=C(C(N)=O)C(=O)[C@@]3(O)C(O)=C1C2=O [tigecycline],resistance acquisition on serial passaging,[16],raise resistance more rapidly and in a more pronounced manner
